Measured values as given in the NIST ThermoML archive (doi:10.1021/je300768j).
± gives the expanded uncertainty stated by the source.

Settings: DTA

SMILES: CC(=O)[O-].CCn1cc[n+](C)c1 [1-ethyl-3-methylimidazolium acetate]
- Glass transition temperature: -75.50 ± 3 °C
